# Assay results published in patent US11730714B2, “Compounds for the treatment of neuromuscular disorders” (NMD PHARMA A/S, priority 2017, dated 2023).
# Key:
# [1] = tested on: rats injected with MAB35; experiment: Rotarod running performance in passive myasthenia gravis induced in rats with MAB35 antibody; type: in vivo, rat; settings: after stable reduction in performance by MAB35, vs sham
# Procedure: FIG. 10. […] Prior to I.P. injection of MAB35 the animals had been familiarized to the rotarod over three training sessions distributed over two days. […] After this treatment performance was monitored every second hour. *Indicates significant different as evaluated using student t-test.
# (§1) In both series of experiments, running performance was tested on a rotarod using a protocol where the rod was accelerated gradually over a 5 min period, and the running time and covered distance before falling off the rod were measured. […] Experiments with tubocurarine were carried out over two days, and on each day the effect of tubocurarine on running performance was tested. On the first day only tubocurarine was injected. […] On the second day, the animals were first allowed to run on the rotarod, and all animals performed normally. […] The allocation of the animals into the two groups (C8 or sham) was random and unknown to the experimenter (blinded experimental design).
# In experiments with MAB35, animals were first familiarized with the rotarod over two consecutive days and then injected I.P. with MAB35. After injection, rotarod performance was then again monitored regularly over the consecutive two days. […] A considerable number of animals, however, became moribund failing to walk and they had altered ventilation (rapid) and pronounced ptosis. These animals were not included in experiments. […]
# [2] = tested on: rats injected with tubocurarine; experiment: Rotarod running performance of rats after I.P. tubocurarine (myasthenia-like phenotype); type: in vivo, rat; settings: C8 20 mg/kg I.P. 2 hrs before tubocurarine 0.13 mg/kg I.P.; tested 21 min after tubocurarine; sham around 2%
# Procedure: FIGS. 9A-9B. […] FIG. 9A illustrates the design of the experiments. Prior to Day One the animals had been familiarized to the rotarod in three training sessions distributed over two days.
# as §1
# In the first series of in vivo experiments, myasthenia gravis was simply mimicked by I.P. injection of tubocurarine (0.13 mg/kg) in animals that had been familiarized to running on the rotarod. On the first of two consecutive days, tubocurarine was injected I.P. and the running performance of the animal was tested 21 minutes after this injection. On the second day of experimentation, the animals first performed a test run to ensure that they were no longer affected by the tubocurarine injected the day before. […]
# [3] = tested on: isolated rat soleus muscles; experiment: Recovery of nerve-stimulated force in isolated rat soleus muscles exposed to sub-maximal tubocurarine; type: cell-based; settings: change in AUC vs AUC after 40 min in tubocurarine before addition
# Procedure: Experiments were performed using rat soleus muscles from either young (4-wk-old) or adult Wistar rats (12-14-week-old). Animal handling, killing and isolation of muscle is described elsewhere All experiments were performed using normal Krebs-Ringer bicarbonate solution (NKR). In solutions with elevated Mg^2+, MgCl2 was added to NKR-solution causing minor increases in osmolarity and ionic strength. In solutions with elevated K^+, 4 mM NaCl was replaced by 4 mM KCl in the NKR.
# In all contraction experiments, isometric force production was determined and force produced during contractions was quantified by measuring the integral of the force response (AUC). Stimulation and force recordings have been described elsewhere. […] In these latter experiments, extracellular recordings of action potentials (M-waves) could be measured without temporal overlap with stimulation artefacts.
# The aim was to find compounds that by inhibition of CIC-1 channels can recover nerve-stimulated force under conditions of fatigue including conditions where fatigue is caused by compromised neuromuscular transmission. Neuromuscular transmission dysfunction can develop because of both pre- and/or post-synaptic complications in connection with a disorder or as part of neuromuscular blockade during/after surgery. In the initial series of drug testing, experiments were performed with isolated muscles in the presence of sub-maximal ACh receptor antagonist tubocurarine. Since the inclusion of tubocurarine caused a partial loss of neuromuscular transmission this experiment mimics the conditions in myasthenia gravis and neuromuscular blockade. To mimic conditions with pre-synaptic complication (Lambert Eaton syndrome, motor neuron disorder, polyneuropathy) the intact nerve-muscle preparations were incubated at elevated extracellular Mg^2+, which is known to suppress release of ACh from nerve terminals of motor neurons.
# The experiments also illustrate that field stimulation of the entire nerve-muscle preparation selectively activates the motor nerve when short-duration pulses (0.02 vs 0.2 ms) were used. In FIG. 1A the preparation was stimulated either via field stimulation or via nerve-stimulation using a suction electrode. With the suction electrode only the nerve could be stimulated. When exposed to a submaximal concentration of the ACh receptor antagonist tubocurarine (0.2 μM) a clear drop in peak force and a further decline (or fade) in force during the stimulation developed. This drop in force clearly reflected compromised neuromuscular transmission, as the decline in peak force and fading were not seen with direct stimulation of the muscle. […] Thus, loss of M-wave and force with tubocurarine reflected partial blockade of neuromuscular function. Such fading of force and M-waves during stimulation represent clinical hallmarks of both myasthenia gravis and neuromuscular blockade in connection with surgery. In FIG. 1B, observations with normal (0.2 ms) and short-duration (0.02 ms) pulses have been compared. It can be seen that only with short-duration pulses did tubocurarine cause a decline in peak force and fading (FIG. 1B). This confirms that short-duration pulses in field stimulation could be used as specific nerve-stimulation. […] Elevated extracellular Mg^2+ could thus be used to partially block neuromuscular transmission and thus be used as a model of conditions with compromised pre-synaptic function (Lambert Eaton syndrome, amyotrophic lateral sclerosis, spinal muscular atrophy). […]
# [4] = tested on: isolated rat soleus muscles; experiment: Recovery of nerve-stimulated force in isolated rat soleus muscles with ACh receptors inhibited by 2 μM rocuronium; type: cell-based; settings: 50 μM C8 added after 2 μM rocuronium had reduced force to 51±5%; 8 muscles; p<0.01
# Procedure: In a separate series of experiments with 8 isolated rat soleus muscles, ACh receptors were inhibited using 2 μM rocuronium, which is a clinically used neuromuscular blocking agent. Under these conditions the nerve-stimulated force was reduced to 51±5% of force before rocuronium. […] This illustrates the potential of these compounds to be used as reversal agents.
smiles,measurement,setting,value
"C[C@H](Oc1ccc(Br)cc1)C(=O)O [Compound C8, (2S)-2-(4-bromophenoxy)propanoic acid]",rotarod performance after injection,[1]; C8 20 mg/kg,decline was reduced
same,rotarod performance after injection,[1]; C8 30 mg/kg,clear recovery of performance
same,increase in running performance on the second day vs the first day (rotarod),[2],around 150%
same,50 μM % change after addition (AUC of nerve-stimulated force),"[3]; 50 μM compound, AUC related to force prior to tubocurarine",16%
same,150 μM % change after addition (AUC of nerve-stimulated force),[3]; 150 μM compound,23%
same,nerve-stimulated contractile force recovered to % of force before rocuronium,[4],81±4%
